According to patent US20070061917A1, “Methods and compositions for the expression of a polynucleotide of interest” (Pioneer Hi-Bred International, Inc., priority 2005, published 2007):

Key:
[1] = test system: non-transformed GS3 embryos; assay: Glyphosate kill curve on non-transformed embryos; format: cell-based, maize; settings: about 40 days culture
Method: (§1) A glyphosate kill curve was established by testing non-transformed embryos response on media with different levels of glyphosate. GS3 embryos were isolated from an immature ear and placed onto media containing glyphosate at 0.0, 0.5, 1.0, and 2.0 mM. After about 40 days culture, the response of the embryos were observed and recorded. Similarly, infected GS3 embryos with the GAT construct were placed onto media containing glyphosate at 0.0, 0.5, 1.0, and 2.0 mM. After about 40 days culture, the response of the infected embryos were observed and recorded (FIG. 7).
(§2) Western or PCR analysis has confirmed that these resistant calli were transformed. Currently, GAT has performed consistently as an effective selectable marker with excellent transformation efficiency in both GS3 and introEF09B genotypes (FIG. 9 and Table 1).

[2] = test system: infected GS3 embryos with the GAT construct; assay: Glyphosate response of embryos infected with the GAT construct; format: cell-based, maize; settings: about 40 days culture
Method: as §1, §2

O=C(O)CNCP(=O)(O)O [glyphosate]
embryo callus response ([1]; 0.5 mM glyphosate in medium): about half of the embryos | embryo callus response ([1]; 1.0 mM glyphosate in medium): very little callus growth | embryo callus response ([1]; 2.0 mM glyphosate in medium): very little callus growth | embryo callus response ([2]; 0.5 mM glyphosate in medium): more callus was grown | embryo callus response ([2]; 1.0 mM glyphosate in medium): some embryos initiated resistant callus | embryo callus response ([2]; 2.0 mM glyphosate in medium): some embryos initiated resistant callus
